Test results taken from patent US20230146507A1, “N-PHENYL-3-MERCAPTOPROPANAMIDE DERIVATIVES AS METALLO-BETA-LACTAMASE INHIBITORS FOR THE TREATMENT OF BACTERIAL INFECTIONS” (Helmholtz-Zentrum Für Infektionsforschung GmbH, priority 2020, published 2023).

Key:
VIM-1 = molecular target: T1, VIM-1 (Pseudomonas aeruginosa, UniProt A0A0F7KYQ8); experiment: In vitro inhibition assay (kinetic fluorescence-based activity assay), VIM-1; format: biochemical; settings: Means and SD of at least two independent experiments
T1 construct: made in house
Protocol: (§1) Protein expression and purification. The expression of IMP-7, VIM-1, and NDM-1 was performed according to the protocol previously published by Klingler et al. (Klingler, F. M.; Wichelhaus, T. A.; Frank, D.; Cuesta-Bernal, J.; El-Delik, J.; Müller, H. F.; Sjuts, H.; Gottig, S.; Koenigs, A.; Pos, K. M.; et al. Approved Drugs Containing Thiols as Inhibitors of Metallo-β-Lactamases: Strategy to Combat Multidrug-Resistant Bacteria. J. Med. Chem. 2015, 58 (8), 3626-3630. https://doi.org/10.1021/jm501844d) with slight modifications.
(§2) In vitro inhibition assay. Activity assays for NDM-1, VIM-1, VIM-2 and IMP-7 were carried out, as described by Klingler et al. Final protein concentrations were 0.5 nM (NDM-1), 4.0 nM (VIM-1), and 0.1 nM (IMP-7) in a 50 mM HEPES buffer (pH 7.5, 0.01% Triton X-100) Substrate (Fluorocillin™ (Invitrogen, Darmstadt, Germany) was dissolved in assay buffer to a final concentration of 888 nM. Test compounds were dissolved and pre-diluted in DMSO (final concentration: 1%). In a black polystyrol 96-well plate (Corning) an amount of […] of the respective inhibitor solution at different concentrations was incubated with […] of respective protein containing buffer for 30 minutes at room temperature. […] of substrate solution was added. The readout of the emitted fluorescence was started immediately (45 s for 30 cycles) using a Tecan Infinite F200Pro (Tecan Group Ltd; excitation at 495 nm and emission at 525 nm). Blank controls were performed without enzyme. Positive controls were performed with enzyme but without inhibitor. The inhibitory activity of each test compound was measured in three independent experiments. For calculation of IC50 values, data obtained from measurements with eight different inhibitor concentrations were used. For the evaluation of the sigmoidal dose response equation (variable slope with four parameters) GraphPad Prism 5 (GraphPad Software, La Jolla, Calif., USA) was used.

NDM-1 = molecular target: T2, NDM-1 (Klebsiella pneumoniae, UniProt C7C422); experiment: In vitro inhibition assay (kinetic fluorescence-based activity assay), NDM-1; format: biochemical; settings: Means and SD of at least two independent experiments
T2 construct: made in house
Protocol: as §1, §2

IMP-7 = IMP-7 (Pseudomonas aeruginosa, UniProt Q93AU3); experiment: In vitro inhibition assay (kinetic fluorescence-based activity assay), IMP-7; format: biochemical; settings: Means and SD of at least two independent experiments
Protocol: as §1, §2

[1] = test system: different isolates from E. coli and P. aeruginosa; experiment: MIC assay, intrinsic antibacterial activity; format: cell-based; settings: compound alone
E. coli IMP-1 (T2360) = experiment: Checkerboard assay with imipenem, E. coli IMP-1 (T2360); format: cell-based
Protocol: (§3) Fractional inhibitory concentration index (FICI). The checkerboard assay was performed to test for synergy in vitro. […] FICIs≤0.5 were defined as synergistic; FICIs from >0.5 to […] were defined as additive; FICIs from 1 to ≤4 were defined as indifferent and FICIs>4 were defined as antagonistic (Doern, C. D. When Does 2 plus 2 Equal 5? A Review of Antimicrobial Synergy Testing. J. Clin. Microbial. 2014, 52 (12), 4124-4128. https://doi.org/10.1128/JCM.01121-14).

E. coli NDM-1 (T2359) = experiment: Checkerboard assay with imipenem, E. coli NDM-1 (T2359); format: cell-based; settings: Table 6
Protocol: as §3

E. coli VIM-1 (T2544) = experiment: Checkerboard assay with imipenem, E. coli VIM-1 (T2544); format: cell-based
Protocol: as §3

T2 sequence (C7C422 29-270, looked up, species assumed): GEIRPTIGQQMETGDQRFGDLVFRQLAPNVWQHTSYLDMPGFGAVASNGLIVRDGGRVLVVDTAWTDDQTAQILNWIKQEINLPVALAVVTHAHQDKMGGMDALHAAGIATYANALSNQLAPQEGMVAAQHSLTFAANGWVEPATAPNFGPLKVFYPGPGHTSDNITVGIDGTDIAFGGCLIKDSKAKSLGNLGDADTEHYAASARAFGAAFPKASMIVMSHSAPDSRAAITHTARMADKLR
Sequence of IMP-7 (Q93AU3 entry or part of it): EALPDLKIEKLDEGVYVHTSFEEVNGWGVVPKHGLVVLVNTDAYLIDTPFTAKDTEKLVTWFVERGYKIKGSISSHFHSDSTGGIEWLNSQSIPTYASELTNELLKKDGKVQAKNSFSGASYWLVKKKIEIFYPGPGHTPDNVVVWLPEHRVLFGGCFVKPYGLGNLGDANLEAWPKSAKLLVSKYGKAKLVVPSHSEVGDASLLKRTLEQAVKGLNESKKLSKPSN

O=C(CCS)Nc1ccc(S(=O)(=O)N2CCOCC2)cc1 [HIPS5659]
IC50 (VIM-1): 1.7 ± 0.3 µM
IC50 (NDM-1): 2.5 ± 0.2 µM
IC50 (IMP-7): 7.1 ± 1.4 µM

O=C(CCS)Nc1ccc(C(=O)O)cc1 [HIPS5695]
intrinsic antibacterial activity (MIC) [1]: no intrinsic antibacterial activity
Imipenem MIC (E. coli IMP-1 (T2360); +2 mg/L compound): 2 mg/L
Imipenem MIC (E. coli IMP-1 (T2360); +4 mg/L compound): 2 mg/L
Imipenem MIC (E. coli IMP-1 (T2360); +8 mg/L compound): 2 mg/L
Imipenem MIC (E. coli IMP-1 (T2360); +16 mg/L compound): 1 mg/L
Imipenem MIC (E. coli IMP-1 (T2360); +32 mg/L compound): 1 mg/L
Imipenem MIC (E. coli IMP-1 (T2360); +64 mg/L compound): 0.5 mg/L
Imipenem MIC (E. coli IMP-1 (T2360); +128 mg/L compound): 0.5 mg/L
Imipenem MIC (E. coli NDM-1 (T2359); +2 mg/L compound): 128 mg/L
Imipenem MIC (E. coli NDM-1 (T2359); +4 mg/L compound): 128 mg/L
Imipenem MIC (E. coli NDM-1 (T2359); +8 mg/L compound): 128 mg/L
Imipenem MIC (E. coli NDM-1 (T2359); +16 mg/L compound): 128 mg/L
Imipenem MIC (E. coli NDM-1 (T2359); +32 mg/L compound): 128 mg/L
Imipenem MIC (E. coli NDM-1 (T2359); +64 mg/L compound): 32 mg/L
Imipenem MIC (E. coli NDM-1 (T2359); +128 mg/L compound): 8 mg/L
IC50 (VIM-1): 0.6 µM
Imipenem MIC (E. coli VIM-1 (T2544); +2 mg/L compound): 16 mg/L
Imipenem MIC (E. coli VIM-1 (T2544); +4 mg/L compound): 16 mg/L
Imipenem MIC (E. coli VIM-1 (T2544); +8 mg/L compound): 16 mg/L
Imipenem MIC (E. coli VIM-1 (T2544); +16 mg/L compound): 16 mg/L
Imipenem MIC (E. coli VIM-1 (T2544); +32 mg/L compound): 4 mg/L
Imipenem MIC (E. coli VIM-1 (T2544); +64 mg/L compound): 2 mg/L
Imipenem MIC (E. coli VIM-1 (T2544); +128 mg/L compound): 1 mg/L
IC50 (NDM-1): 1 ± 0.4 µM
IC50 (μM) IMP-7 (IMP-7): n.i.

CC(=O)c1ccc(NC(=O)CCS)cc1 [HIPS5188]
IC50 (VIM-1): 0.4 ± 0.1 µM
IC50 (NDM-1): 1.5 ± 0.3 µM
IC50 (IMP-7): 5.5 ± 0.1 µM

N=C(N)NS(=O)(=O)c1ccc(NC(=O)CCS)cc1 [HIPS5683]
intrinsic antibacterial activity (MIC) [1]: no intrinsic antibacterial activity
Imipenem MIC (E. coli IMP-1 (T2360); +2 mg/L compound): 2 mg/L
Imipenem MIC (E. coli IMP-1 (T2360); +4 mg/L compound): 1 mg/L
Imipenem MIC (E. coli IMP-1 (T2360); +8 mg/L compound): 1 mg/L
Imipenem MIC (E. coli IMP-1 (T2360); +16 mg/L compound): 1 mg/L
Imipenem MIC (E. coli IMP-1 (T2360); +32 mg/L compound): 1 mg/L
Imipenem MIC (E. coli IMP-1 (T2360); +64 mg/L compound): 1 mg/L
Imipenem MIC (E. coli IMP-1 (T2360); +128 mg/L compound): 0.5 mg/L
Imipenem MIC (E. coli NDM-1 (T2359); +2 mg/L compound): 128 mg/L
Imipenem MIC (E. coli NDM-1 (T2359); +4 mg/L compound): 128 mg/L
Imipenem MIC (E. coli NDM-1 (T2359); +8 mg/L compound): 128 mg/L
Imipenem MIC (E. coli NDM-1 (T2359); +16 mg/L compound): 128 mg/L
Imipenem MIC (E. coli NDM-1 (T2359); +32 mg/L compound): 128 mg/L
Imipenem MIC (E. coli NDM-1 (T2359); +64 mg/L compound): 64 mg/L
Imipenem MIC (E. coli NDM-1 (T2359); +128 mg/L compound): 16 mg/L
IC50 (VIM-1): 0.5 µM
Imipenem MIC (E. coli VIM-1 (T2544); +2 mg/L compound): 32 mg/L
Imipenem MIC (E. coli VIM-1 (T2544); +4 mg/L compound): 32 mg/L
Imipenem MIC (E. coli VIM-1 (T2544); +8 mg/L compound): 32 mg/L
Imipenem MIC (E. coli VIM-1 (T2544); +16 mg/L compound): 32 mg/L
Imipenem MIC (E. coli VIM-1 (T2544); +32 mg/L compound): 16 mg/L
Imipenem MIC (E. coli VIM-1 (T2544); +64 mg/L compound): 8 mg/L
Imipenem MIC (E. coli VIM-1 (T2544); +128 mg/L compound): 2 mg/L
IC50 (NDM-1): 2.1 ± 0.1 µM
IC50 (IMP-7): 3.3 ± 0.4 µM

CN(C)S(=O)(=O)c1ccc(NC(=O)CCS)cc1 [HIPS5665]
IC50 (VIM-1): 0.8 µM
IC50 (NDM-1): 2.8 ± 0.1 µM
IC50 (IMP-7): 2.1 ± 0.2 µM

COC(=O)c1ccc(NC(=O)CCS)cc1 [HIPS5586]
IC50 (VIM-1): 0.1 µM
IC50 (NDM-1): 2.8 ± 0.1 µM
IC50 (IMP-7): 1.1 ± 0.7 µM

CS(=O)(=O)Nc1cccc(NC(=O)CCS)c1 [HIPS5585]
IC50 (VIM-1): 1.3 µM
IC50 (NDM-1): 2.2 ± 0.3 µM
IC50 (IMP-7): 1.3 µM

COC(=O)c1ccccc1NC(=O)CCS [HIPS1685]
IC50 (μM) VIM-1 (VIM-1): n.i.
IC50 (NDM-1): 1.3 ± 0.2 µM
IC50 (IMP-7): 1 ± 0.1 µM

O=C(CCS)Nc1cccc([N+](=O)[O-])c1 [HIPS5662]
IC50 (VIM-1): 0.1 µM
IC50 (NDM-1): 2.5 ± 0.2 µM
IC50 (IMP-7): 2.6 ± 0.1 µM

CCN(CC)Cc1cccc(NC(=O)CCS)c1 [HIPS5664]
IC50 (VIM-1): 0.8 ± 0.1 µM
IC50 (NDM-1): 6.5 ± 0.4 µM
IC50 (IMP-7): 5.5 ± 0.7 µM

CS(=O)(=O)Nc1ccccc1NC(=O)CCS [HIPS5654]
IC50 (VIM-1): 1.9 ± 0.2 µM
IC50 (NDM-1): 7 ± 0.3 µM
IC50 (μM) IMP-7 (IMP-7): n.i.

O=C(CCS)Nc1cccc(O)c1 [HIPS1687]
IC50 (VIM-1): 0.1 µM
IC50 (NDM-1): 2.7 ± 0.5 µM
IC50 (IMP-7): 1.4 ± 0.2 µM

O=C(CCS)Nc1ccc(O)cc1 [HIPS5190]
IC50 (VIM-1): 0.2 µM
IC50 (NDM-1): 4 ± 1.1 µM
IC50 (IMP-7): 3.4 ± 0.7 µM

Nc1ccc(NC(=O)CCS)cc1 [HIPS5666]
IC50 (VIM-1): 0.5 µM
IC50 (NDM-1): 6.5 ± 0.5 µM
IC50 (IMP-7): 2.1 ± 0.3 µM

CN1CCN(Cc2ccc(NC(=O)CCS)cc2)CC1 [HIPS5696]
IC50 (VIM-1): 1.5 ± 0.1 µM
IC50 (NDM-1): 6.4 ± 0.6 µM
IC50 (IMP-7): 5.8 ± 0.4 µM

O=C(CCS)Nc1ccccc1O [HIPS5661]
IC50 (VIM-1): 0.2 µM
IC50 (NDM-1): 2.2 ± 0.4 µM
IC50 (IMP-7): 3.3 ± 0.4 µM
